Values quoted from earlier work in patent publication US8697713B2, “Pyrrolopyrimidines for pharmaceutical compositions” (Boehringer Ingelheim International GmbH, priority 2006, dated 2014).

Assays:
human Mnk2 protein = human Mnk2 protein (Homo sapiens, UniProt Q9HBH9)
phosphorylated eIF4E = conditions: cell culture cells transfected with Mnk2 (Mnk2a or Mnk2b) or Mnk1

Sequence of human Mnk2 protein (Q9HBH9 whole entry): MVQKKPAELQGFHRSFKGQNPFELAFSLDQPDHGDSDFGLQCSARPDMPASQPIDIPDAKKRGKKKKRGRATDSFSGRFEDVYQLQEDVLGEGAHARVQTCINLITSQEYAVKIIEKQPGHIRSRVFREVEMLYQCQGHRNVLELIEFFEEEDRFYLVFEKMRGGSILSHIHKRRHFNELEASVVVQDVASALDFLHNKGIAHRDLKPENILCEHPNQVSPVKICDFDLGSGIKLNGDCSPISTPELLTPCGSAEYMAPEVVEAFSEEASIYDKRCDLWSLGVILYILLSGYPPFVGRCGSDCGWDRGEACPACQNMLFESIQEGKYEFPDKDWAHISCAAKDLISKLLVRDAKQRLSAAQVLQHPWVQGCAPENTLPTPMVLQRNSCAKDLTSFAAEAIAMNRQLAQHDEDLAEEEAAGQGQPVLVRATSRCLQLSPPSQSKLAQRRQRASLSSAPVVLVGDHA

SMILES	binds the human Mnk2 protein (human Mnk2 protein)	reduction of phosphorylated eIF4E (phosphorylated eIF4E)
COC(=O)c1ccc(O)cc1 [4-hydroxybenzoic acid methyl ester]	binds	–
Nc1ncnc2n[nH]c(Nc3ccc(F)cc3)c12 [CGP57380]	–	strong reduction
